The subject of data set [1] is Murine BMSMCs. In words: RANKL-induced osteoclastogenesis (TRAP, multinucleation, marker mRNA). The class given is cell-based. The note with it: RANKL (100 ng/ml). The method, then:
Murine BMSMCs were grown for up to 21 days in media supplemented with 50 ng/ml of m-CSF and 100 ng/mL RANKL. Each experiment was repeated a minimum of three times. Cells were fixed and stained for Tartrate Resistant Acid Phosphatase (TRAP) activity at days 1, 7, 14, and 21. The number of trap positive osteoclast-like cells (out of 100 cells) were counted for each time point, along with TRAP intensity, as shown in schematic A. In schematic B, the number of nuclei for each cell counted and the average number of nuclei per cell for 100 cells is shown at each time point.

Data set [2] relates to Jurkat cells. Type of data set: cell-based. The note with it: human. More on the design: dose or concentration left out as unconfirmed. Here is the method: wherein each X is chlorine, Y is a methyl group, and R is an ethyl group. N-MeDCPA is synthesized as described in U.S. Pat. No. 10,682,320, which is incorporated by reference herein. ELP-004 (N-MeDCPA) precludes metabolizing to two toxic metabolites, N—OH-dichloroaniline and 6-OH-dichloroaniline. In vitro assays for toxicity caused by ELP-004 using Jurkat cells show 50% toxicity at […] and <2% toxicity at […].
ELP-004 (i.e. N-MeDCPA) was specifically developed to preclude metabolizing to two toxic metabolites, N—OH-dichloroaniline and 6-OH-dichloroaniline. In vitro assays for toxicity caused by ELP-004 using Jurkat cells show 50% toxicity at […] and <2% toxicity at […].

Data set [3] can be described thus: ability to cross the blood brain barrier. The source says: ELP-004 has been evaluated for its ability to cross the blood brain barrier. […] Other medications, such as but not limited to bupropion, are known to cause problems due to dopamine transporter binding.
Data set [4] has as its target T1, CYP2B6 (Homo sapiens, UniProt P20813).
T1 sequence (P20813 1-491): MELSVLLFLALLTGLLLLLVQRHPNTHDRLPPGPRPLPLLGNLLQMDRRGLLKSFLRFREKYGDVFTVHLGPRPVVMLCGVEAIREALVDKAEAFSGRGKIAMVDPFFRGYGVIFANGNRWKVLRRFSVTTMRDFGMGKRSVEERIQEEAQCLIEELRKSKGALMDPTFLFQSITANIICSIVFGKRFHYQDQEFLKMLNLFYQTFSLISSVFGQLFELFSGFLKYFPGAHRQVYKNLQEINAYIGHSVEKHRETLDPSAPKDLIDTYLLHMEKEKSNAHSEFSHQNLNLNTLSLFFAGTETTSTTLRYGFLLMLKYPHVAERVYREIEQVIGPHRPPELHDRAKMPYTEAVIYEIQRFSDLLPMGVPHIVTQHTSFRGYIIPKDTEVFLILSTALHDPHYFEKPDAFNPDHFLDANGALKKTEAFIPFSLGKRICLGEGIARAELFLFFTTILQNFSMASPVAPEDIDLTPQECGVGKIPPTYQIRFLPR
In words: stability with recombinant CYP2B6. The class given is in vitro ADME. Particulars: recombinant CYP2B6, intrinsic clearance, read-out: Recombinant CYP CLINT. The method, then: (§1) Depicted in table 2 is cytochrome P450 phenotyping and inhibition by ELP-004. The stability of ELP-004 was tested in the presence of recombinant enzymes CYP1A2, CYP2B6, CYP2C8, CYP2C9, CYP2C19, CYP2D6, and CYP3A4. ELP-004 (1 μM) was incubated with recombinant enzymes and NADPH. The amount of ELP-004 remaining at each timepoint was analyzed by LC-MS/MS. Incubations in control recombinant enzymes were also performed to assess non-enzymatic mediated stability. The intrinsic clearance of ELP-004 was determined. […] A decrease in the formation of the metabolite compared to vehicle control is used to calculate an IC50 value. Metabolite peak area ratio response as a percentage of vehicle control is plotted against the test compound concentration.

The target of data set [5] is T2, CYP2C8 (Homo sapiens, UniProt P10632).
T2 sequence (P10632 1-490): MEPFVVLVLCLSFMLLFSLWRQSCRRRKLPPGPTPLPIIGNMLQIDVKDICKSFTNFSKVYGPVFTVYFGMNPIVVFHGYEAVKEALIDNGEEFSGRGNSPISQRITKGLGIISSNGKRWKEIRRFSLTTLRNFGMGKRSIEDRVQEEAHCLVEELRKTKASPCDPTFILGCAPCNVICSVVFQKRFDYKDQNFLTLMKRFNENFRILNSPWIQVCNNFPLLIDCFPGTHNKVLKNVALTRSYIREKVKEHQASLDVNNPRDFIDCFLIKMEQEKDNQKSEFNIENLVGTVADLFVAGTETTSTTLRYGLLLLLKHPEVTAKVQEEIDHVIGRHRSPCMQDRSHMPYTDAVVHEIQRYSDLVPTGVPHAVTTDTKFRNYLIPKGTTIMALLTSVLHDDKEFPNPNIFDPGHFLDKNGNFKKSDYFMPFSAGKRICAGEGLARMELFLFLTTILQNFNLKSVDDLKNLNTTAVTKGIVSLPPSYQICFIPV
In words: stability with recombinant CYP2C8. The class given is in vitro ADME. Particulars: recombinant CYP2C8, intrinsic clearance, read-out: Recombinant CYP CLINT. Here is the method:
as §1

Data set [6] addresses CYP2C9 (Homo sapiens, UniProt P11712). In words: stability with recombinant CYP2C9. Type of data set: in vitro ADME. The method, then:
as §1

The target in data set [7] is CYP2D6 (Homo sapiens, UniProt P10635). Nature of the data set: stability with recombinant CYP2D6. The class given is in vitro ADME. Here is the method:
as §1

The target of data set [8] is CYP3A4 (Homo sapiens, UniProt P08684). Nature of the data set: stability with recombinant CYP3A4. The class given is in vitro ADME. Particulars: recombinant CYP3A4, intrinsic clearance, read-out: Recombinant CYP CLINT. The method, then:
as §1

Data set [9] has as its system human myeloma cells (U266 cells). In words: bone loss in the animal model of multiple myeloma. The class given is in vivo. Particulars: mice engrafted with human U266 myeloma cells, 60 mg/kg ELP-004 at 72h intervals (summary statement). The method, then: Shown are cross-sections of distal femur micro-computer tomographic images from mice treated with 60 mg/kg ELP-004 or vehicle control at 72h intervals after the engraftment of human 2×10^6 myeloma cells (U266 cells). Confirmation of engraftment was verified by measuring serum human IgE levels.

Like-named read-outs stand apart in the source and are kept apart here.

This is an account of results in patent US20240277631A1, “SMALL MOLECULE DRUG (ELP-004) TO PREVENT BONE LESIONS CAUSED BY MULTIPLE MYELOMA” (West Virginia University Board of Governors on behalf of …, priority 2023, published 2024).

Chain of CYP2C9 (P11712 whole entry): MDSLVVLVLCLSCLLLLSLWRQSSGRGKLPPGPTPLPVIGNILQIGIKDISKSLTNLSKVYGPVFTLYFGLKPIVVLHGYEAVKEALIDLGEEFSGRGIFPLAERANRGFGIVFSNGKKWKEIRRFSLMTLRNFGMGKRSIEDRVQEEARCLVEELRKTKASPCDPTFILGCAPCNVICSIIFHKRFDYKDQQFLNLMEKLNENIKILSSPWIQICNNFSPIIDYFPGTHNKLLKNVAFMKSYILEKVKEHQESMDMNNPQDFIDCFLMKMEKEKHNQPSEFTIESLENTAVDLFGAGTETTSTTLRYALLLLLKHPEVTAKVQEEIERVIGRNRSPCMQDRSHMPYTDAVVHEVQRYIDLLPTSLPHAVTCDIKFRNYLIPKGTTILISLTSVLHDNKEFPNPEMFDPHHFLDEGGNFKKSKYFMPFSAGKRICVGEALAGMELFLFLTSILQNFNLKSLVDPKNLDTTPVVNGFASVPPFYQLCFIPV
Chain of CYP2D6 (P10635 whole entry): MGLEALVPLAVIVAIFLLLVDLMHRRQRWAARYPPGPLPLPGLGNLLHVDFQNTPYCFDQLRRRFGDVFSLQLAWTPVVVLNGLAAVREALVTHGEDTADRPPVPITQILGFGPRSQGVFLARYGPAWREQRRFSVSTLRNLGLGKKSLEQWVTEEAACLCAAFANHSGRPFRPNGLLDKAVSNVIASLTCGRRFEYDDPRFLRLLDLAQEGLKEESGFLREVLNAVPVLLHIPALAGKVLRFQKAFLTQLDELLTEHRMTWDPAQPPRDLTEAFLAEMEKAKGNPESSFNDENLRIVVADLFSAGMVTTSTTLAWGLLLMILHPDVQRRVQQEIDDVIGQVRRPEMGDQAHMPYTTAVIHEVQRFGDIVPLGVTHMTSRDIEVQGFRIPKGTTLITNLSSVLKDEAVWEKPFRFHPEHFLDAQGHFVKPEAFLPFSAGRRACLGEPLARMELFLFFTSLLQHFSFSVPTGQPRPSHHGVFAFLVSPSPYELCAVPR
Chain of CYP3A4 (P08684 whole entry): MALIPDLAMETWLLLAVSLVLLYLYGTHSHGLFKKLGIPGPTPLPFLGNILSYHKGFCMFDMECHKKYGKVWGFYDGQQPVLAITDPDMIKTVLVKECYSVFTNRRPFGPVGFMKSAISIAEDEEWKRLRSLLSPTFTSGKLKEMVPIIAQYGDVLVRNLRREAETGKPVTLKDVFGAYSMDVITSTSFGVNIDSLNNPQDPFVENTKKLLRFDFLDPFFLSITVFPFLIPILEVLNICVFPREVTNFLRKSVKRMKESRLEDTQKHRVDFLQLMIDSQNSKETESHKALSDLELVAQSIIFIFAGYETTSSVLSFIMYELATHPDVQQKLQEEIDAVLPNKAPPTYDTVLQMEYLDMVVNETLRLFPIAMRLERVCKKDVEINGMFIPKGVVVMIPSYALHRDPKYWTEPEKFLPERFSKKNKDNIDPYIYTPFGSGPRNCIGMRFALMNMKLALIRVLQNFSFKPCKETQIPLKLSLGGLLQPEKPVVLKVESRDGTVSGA

Turning to `CCC(=O)N(C)c1ccc(Cl)c(Cl)c1` [ELP-004, N-(3,4-dichlorophenyl)-N-methylpropanamide], in data set [1], the TRAP activity entry is “no significant effect”. The multinucleation entry in data set [1] was “no significant effect”. In addition, the “expression of osteoclast markers” value in data set [1] (RT-PCR days 7 and 14) is recorded as “no significant effect”. In addition, the toxicity in data set [2] (200) is recorded as less than 2%; in data set [2] (800) it was 50%. The “crossing of the blood brain barrier” value in data set [3] is “does not cross the blood brain barrier”. In addition, the microsomal CLint at 1 μM in data set [4] is 0.815 µL/min/mg; in [5] it was 0.219 µL/min/mg; in data set [6] (human, recombinant CYP2C9, intrinsic clearance, read-out: Recombinant CYP CLINT), less than 0.154 µL/min/mg; in [7] (human, recombinant CYP2D6, intrinsic clearance, read-out: Recombinant CYP CLINT) it was less than 0.154 µL/min/mg; in [8], 0.193 µL/min/mg. Moreover, the “metabolism by recombinant enzyme” value in data set [6] (recombinant CYP2C9) and in data set [7] (recombinant CYP2D6) was “not metabolized” in each case. The “ELP-004 t1/2” value is greater than 3 h in [6] (recombinant CYP2C9, 1 μM, NADPH) and greater than 3 h in [7] (recombinant CYP2D6, 1 μM, NADPH). Besides, the “development of bone lesions” value in [9] is reported as “strongly suppressed”.
